From EP0768085A1, “ANTIBACTERIAL AGENT” (DAIICHI PHARMACEUTICAL CO., LTD., priority 1994, dated 1996)
Values after ≈ are worked out from the molar mass of the structure shown.

Columns and labels:
Format in all cases: cell-based
[1] = test system: Staphylococcus aureus (209-P); test: Antibacterial activity (IC), agar as in Example 8 (Example 15, Table 48); conditions: 18 h
Method: (§1) The antibacterial action was evaluated by the inhibitory concentration (hereinafter abbreviated as IC) at which propagation of the bacteria cultured at 37°C for 18 hours was inhibited. Inhibition was determined by the turbidity of the medium. The expressions "IC≤100", "≤10", and "≤1" indicate that MIC-equivalent values obtained at the succesive […] dilution of the sample are 100-10 µg/ml, 10-1 µg/ml, and not more than 1 µg/ml, respectively. […] (In the subsequent Examples, the same rule applies correspondingly.) Table 39
(§2) A suitable amount of a sample was dissolved in dimethylsulfoxide (DMSO), after which the resulting solution was diluted with the same amount of sterilized distilled water to prepare a bulk sample of 1,000 µg/ml. Separately, a bacterial liquid for the test (methicillin-resistant Staphylococcus aureus (MRSA) isolated from humans) which had been cultured in Mueller-Hinton broth (product of DIFCO) was prepared and inoculated to a Mueller-Hinton agar (product of DIFCO) containing the sample so that the final inoculation amount of 10^6 CFU/ml was achieved. The final concentrations of the samples were 100, 10, and 1 µg/ml.
(§3) After culturing at 37°C for 18 hours, the antibacterial activity was evaluated in terms of IC in a manner similar to that described in Example 4.
The bacterium used for the test was Staphylococcus aureus (209-P).

[2] = test system: Streptococcus aureus (TI-1); test: Antibacterial activity (IC), agar as in Example 8 (Example 16, Table 49); conditions: 18 h
Method: as §1, §2, §3
In a manner similar to that described in Example 8, antibacterial activity of the invention compound was determined. The bacterium used for the test was […] aureus (TI-1).

[3] = test system: Pasteurella multocida (Kobe-6); test: Antibacterial activity (IC), agar as in Example 8 (Example 17, Table 50); conditions: 18 h, origin pig
Method: as §1, §2, §3
In a manner similar to that described in Example 8, antibacterial activity of the invention compound was determined. The bacterium used for the test was Pasteurella Kobe-6 (origin: pig, Pasteurella multocida).

[4] = test system: methicillin-resistant Staphylococcus aureus (MRSA) from humans; test: Antibacterial activity (IC), agar as in Example 8 (Example 19, Table 52); conditions: 18 h
Method: as §1, §2, §3
In a manner similar to that described in Example 8, antibacterial activity of a variety of ketonitrile derivatives shown in Table 52 was measured. The bacterium used for the test was methicillin-resistant Staphylococcus aureus (MRSA) from humans.

Enterococcus from fish = test: Antibacterial activity (IC), agar as in Example 8, media with 1.5% NaCl, 25°C (Example 20, Tables 53-55); conditions: for MIC: Enterococcus Seriolicida SE94-002
Method: as §1, §2, §3
(§4) In a manner similar to that described in Example 8, antibacterial activity of a variety of ketonitrile derivatives shown in Tables 53-55 was measured. The bacteria used for the test were Enterococcus and Pasteurella from fish. The culture conditions were such that the media contained 1.5% NaCl, and the culture temperature was 25°C.

Pasteurella from fish = test: as above; conditions: for MIC: Pasteurella piscicida KP94-02
Method: as §1, §2, §3, §4

[5] = Enterococcus Seriolicida KG86050
[6] = Enterococcus Seriolicida MS89060
[7] = Enterococcus Seriolicida MS89064
[8] = Enterococcus Seriolicida MS89066
[9] = Enterococcus Seriolicida MS89068
[10] = Enterococcus Seriolicida SE94-001
[11] = Enterococcus Seriolicida SE94-003
[12] = Enterococcus Seriolicida SE94-004
[13] = Enterococcus Seriolicida SE94-005

## CC(Oc1cccc(Oc2ccc(Br)cc2F)c1)C(=O)C(C#N)c1ccc(Cl)c(Cl)c1 (stereo not drawn) [Compound No. 109, 4-[3-(4-bromo-2-fluorophenoxy)phenoxy]-2-(3,4-dichlorophenyl)-3-oxopentanonitrile]
[1]
  MIC: 1 to 10 µg/mL (≈ 1.91 to 19.1 µM)
[2]
  MIC: ≤ 1 µg/mL
[3]
  MIC: 1 to 10 µg/mL (≈ 1.91 to 19.1 µM)
[4]; MRSA strain 891179
  MIC: 1 to 10 µg/mL (≈ 1.91 to 19.1 µM)
[4]; MRSA strain 891185
  MIC: 1 to 10 µg/mL (≈ 1.91 to 19.1 µM)
[4]; MRSA strain 891187
  MIC: 1 to 10 µg/mL (≈ 1.91 to 19.1 µM)
[4]; MRSA strain 891192
  MIC: 1 to 10 µg/mL (≈ 1.91 to 19.1 µM)
[4]; MRSA strain 900048
  MIC: 1 to 10 µg/mL (≈ 1.91 to 19.1 µM)
[4]; MRSA strain 900056
  MIC: 1 to 10 µg/mL (≈ 1.91 to 19.1 µM)
Enterococcus from fish; Enterococcus Seriolicida HI
  IC: ≤10 (10-1 µg/ml)
Enterococcus from fish; [5]
  IC: ≤10 (10-1 µg/ml)
Enterococcus from fish; [6]
  IC: ≤10 (10-1 µg/ml)
Enterococcus from fish; [7]
  IC: ≤10 (10-1 µg/ml)
Enterococcus from fish; [8]
  IC: ≤10 (10-1 µg/ml)
Enterococcus from fish; [9]
  IC: ≤10 (10-1 µg/ml)
Enterococcus from fish; [10]
  IC: ≤10 (10-1 µg/ml)
Enterococcus from fish
  MIC: 1 to 10 µg/mL (≈ 1.91 to 19.1 µM)
Enterococcus from fish; [11]
  IC: ≤10 (10-1 µg/ml)
Enterococcus from fish; [12]
  IC: ≤10 (10-1 µg/ml)
Enterococcus from fish; [13]
  IC: ≤10 (10-1 µg/ml)
Pasteurella from fish
  MIC: 1 to 10 µg/mL (≈ 1.91 to 19.1 µM)

## CC(Oc1cccc(Oc2ccc(Br)cc2F)c1)C(=O)C(C#N)c1cccc(Cl)c1 (stereo not drawn) [Compound No. 110, 4-[3-(4-bromo-2-fluorophenoxy)phenoxy]-2-(3-chlorophenyl)-3-oxopentanonitrile]
[1]
  MIC: 1 to 10 µg/mL (≈ 2.05 to 20.5 µM)
[2]
  MIC: 1 to 10 µg/mL (≈ 2.05 to 20.5 µM)
[3]
  MIC: 10 to 100 µg/mL (≈ 20.5 to 205 µM)
[4]; MRSA strain 891179
  MIC: 1 to 10 µg/mL (≈ 2.05 to 20.5 µM)
[4]; MRSA strain 891185
  MIC: 1 to 10 µg/mL (≈ 2.05 to 20.5 µM)
[4]; MRSA strain 891187
  MIC: 1 to 10 µg/mL (≈ 2.05 to 20.5 µM)
[4]; MRSA strain 891192
  MIC: 1 to 10 µg/mL (≈ 2.05 to 20.5 µM)
[4]; MRSA strain 900048
  MIC: 1 to 10 µg/mL (≈ 2.05 to 20.5 µM)
[4]; MRSA strain 900056
  MIC: 1 to 10 µg/mL (≈ 2.05 to 20.5 µM)
Enterococcus from fish; Enterococcus Seriolicida HI
  IC: ≤10 (10-1 µg/ml)
Enterococcus from fish; [5]
  IC: ≤10 (10-1 µg/ml)
Enterococcus from fish; [6]
  IC: ≤10 (10-1 µg/ml)
Enterococcus from fish; [7]
  IC: ≤10 (10-1 µg/ml)
Enterococcus from fish; [8]
  IC: ≤10 (10-1 µg/ml)
Enterococcus from fish; [9]
  IC: ≤10 (10-1 µg/ml)
Enterococcus from fish; [10]
  IC: ≤10 (10-1 µg/ml)
Enterococcus from fish
  MIC: 1 to 10 µg/mL (≈ 2.05 to 20.5 µM)
Enterococcus from fish; [11]
  IC: ≤10 (10-1 µg/ml)
Enterococcus from fish; [12]
  IC: ≤10 (10-1 µg/ml)
Enterococcus from fish; [13]
  IC: ≤10 (10-1 µg/ml)
Pasteurella from fish
  MIC: 10 to 100 µg/mL (≈ 20.5 to 205 µM)
Pasteurella from fish; Pasteurella piscicida KP94-04
  IC: ≤100 (MIC-equivalent values obtained at the succesive 2-fold dilution of the sample are 100-10 µg/ml)
Pasteurella from fish; Pasteurella piscicida KP94-05
  IC: ≤100 (MIC-equivalent values obtained at the succesive 2-fold dilution of the sample are 100-10 µg/ml)
Pasteurella from fish; Pasteurella piscicida KP94-06
  IC: ≤100 (MIC-equivalent values obtained at the succesive 2-fold dilution of the sample are 100-10 µg/ml)

## CC(Oc1cc(Oc2ccc(C(F)(F)F)cc2Cl)ccc1[N+](=O)[O-])C(=O)C(C#N)c1ccc(Cl)cc1Cl (stereo not drawn) [Compound No. 116, 4-[5-(2-chloro-4-trifluoromethylphenoxy)-2-nitrophenoxy]-2-(2,4-dichlorophenyl)-3-oxopentanonitrile]
[1]
  MIC: 1 to 10 µg/mL (≈ 1.74 to 17.4 µM)
[2]
  MIC: 1 to 10 µg/mL (≈ 1.74 to 17.4 µM)
[3]
  MIC: 1 to 10 µg/mL (≈ 1.74 to 17.4 µM)
Enterococcus from fish; Enterococcus Seriolicida HI
  IC: ≤10 (10-1 µg/ml)
Enterococcus from fish; [5]
  IC: ≤10 (10-1 µg/ml)
Enterococcus from fish; [6]
  IC: ≤10 (10-1 µg/ml)
Enterococcus from fish; [7]
  IC: ≤10 (10-1 µg/ml)
Enterococcus from fish; [8]
  IC: ≤10 (10-1 µg/ml)
Enterococcus from fish; [9]
  IC: ≤10 (10-1 µg/ml)
Enterococcus from fish; [10]
  IC: ≤10 (10-1 µg/ml)
Enterococcus from fish
  MIC: 1 to 10 µg/mL (≈ 1.74 to 17.4 µM)
Enterococcus from fish; [11]
  IC: ≤10 (10-1 µg/ml)
Enterococcus from fish; [12]
  IC: ≤10 (10-1 µg/ml)
Enterococcus from fish; [13]
  IC: ≤10 (10-1 µg/ml)
Pasteurella from fish
  MIC: 10 to 100 µg/mL (≈ 17.4 to 174 µM)
Pasteurella from fish; Pasteurella piscicida KP94-04
  IC: ≤100 (MIC-equivalent values obtained at the succesive 2-fold dilution of the sample are 100-10 µg/ml)
Pasteurella from fish; Pasteurella piscicida KP94-05
  IC: ≤100 (MIC-equivalent values obtained at the succesive 2-fold dilution of the sample are 100-10 µg/ml)
Pasteurella from fish; Pasteurella piscicida KP94-06
  IC: ≤100 (MIC-equivalent values obtained at the succesive 2-fold dilution of the sample are 100-10 µg/ml)

## CC(Oc1cc(Oc2ccc(C(F)(F)F)cc2Cl)ccc1[N+](=O)[O-])C(=O)C(C#N)C(=O)N1CCCC1 (stereo not drawn) [compound 134]
[1]
  MIC: 10 to 100 µg/mL (≈ 19 to 190 µM)
[2]
  MIC: 10 to 100 µg/mL (≈ 19 to 190 µM)
[3]
  MIC: 10 to 100 µg/mL (≈ 19 to 190 µM)
Enterococcus from fish; Enterococcus Seriolicida HI
  IC: ≤100 (MIC-equivalent values obtained at the succesive 2-fold dilution of the sample are 100-10 µg/ml)
Enterococcus from fish; [5]
  IC: ≤100 (MIC-equivalent values obtained at the succesive 2-fold dilution of the sample are 100-10 µg/ml)
Enterococcus from fish; [6]
  IC: ≤100 (MIC-equivalent values obtained at the succesive 2-fold dilution of the sample are 100-10 µg/ml)
Enterococcus from fish; [7]
  IC: ≤100 (MIC-equivalent values obtained at the succesive 2-fold dilution of the sample are 100-10 µg/ml)
Enterococcus from fish; [8]
  IC: ≤100 (MIC-equivalent values obtained at the succesive 2-fold dilution of the sample are 100-10 µg/ml)
Enterococcus from fish; [9]
  IC: ≤100 (MIC-equivalent values obtained at the succesive 2-fold dilution of the sample are 100-10 µg/ml)
Enterococcus from fish; [10]
  IC: ≤100 (MIC-equivalent values obtained at the succesive 2-fold dilution of the sample are 100-10 µg/ml)
Enterococcus from fish
  MIC: 10 to 100 µg/mL (≈ 19 to 190 µM)
Enterococcus from fish; [11]
  IC: ≤100 (MIC-equivalent values obtained at the succesive 2-fold dilution of the sample are 100-10 µg/ml)
Enterococcus from fish; [12]
  IC: ≤100 (MIC-equivalent values obtained at the succesive 2-fold dilution of the sample are 100-10 µg/ml)
Enterococcus from fish; [13]
  IC: ≤100 (MIC-equivalent values obtained at the succesive 2-fold dilution of the sample are 100-10 µg/ml)
Pasteurella from fish
  MIC: 10 to 100 µg/mL (≈ 19 to 190 µM)
